From US11524966B1 (Valo Early Discovery, Inc., priority 2017, dated 2022) come the findings set out here.

Structures are written as SMILES. Where two headings read alike, the source gives them in different places.

The assay has as its target T1, USP28 (His-tagged USP28-FL-mammalian) (Homo sapiens, UniProt Q96RU2).
T1 construct: Expression of USP28 (1-1077)-TEV-6*His (pTT5 vector); made in house; host or cells: Expi293f cells (pTT5 vector)
T1 sequence (Q96RU2 1-1077): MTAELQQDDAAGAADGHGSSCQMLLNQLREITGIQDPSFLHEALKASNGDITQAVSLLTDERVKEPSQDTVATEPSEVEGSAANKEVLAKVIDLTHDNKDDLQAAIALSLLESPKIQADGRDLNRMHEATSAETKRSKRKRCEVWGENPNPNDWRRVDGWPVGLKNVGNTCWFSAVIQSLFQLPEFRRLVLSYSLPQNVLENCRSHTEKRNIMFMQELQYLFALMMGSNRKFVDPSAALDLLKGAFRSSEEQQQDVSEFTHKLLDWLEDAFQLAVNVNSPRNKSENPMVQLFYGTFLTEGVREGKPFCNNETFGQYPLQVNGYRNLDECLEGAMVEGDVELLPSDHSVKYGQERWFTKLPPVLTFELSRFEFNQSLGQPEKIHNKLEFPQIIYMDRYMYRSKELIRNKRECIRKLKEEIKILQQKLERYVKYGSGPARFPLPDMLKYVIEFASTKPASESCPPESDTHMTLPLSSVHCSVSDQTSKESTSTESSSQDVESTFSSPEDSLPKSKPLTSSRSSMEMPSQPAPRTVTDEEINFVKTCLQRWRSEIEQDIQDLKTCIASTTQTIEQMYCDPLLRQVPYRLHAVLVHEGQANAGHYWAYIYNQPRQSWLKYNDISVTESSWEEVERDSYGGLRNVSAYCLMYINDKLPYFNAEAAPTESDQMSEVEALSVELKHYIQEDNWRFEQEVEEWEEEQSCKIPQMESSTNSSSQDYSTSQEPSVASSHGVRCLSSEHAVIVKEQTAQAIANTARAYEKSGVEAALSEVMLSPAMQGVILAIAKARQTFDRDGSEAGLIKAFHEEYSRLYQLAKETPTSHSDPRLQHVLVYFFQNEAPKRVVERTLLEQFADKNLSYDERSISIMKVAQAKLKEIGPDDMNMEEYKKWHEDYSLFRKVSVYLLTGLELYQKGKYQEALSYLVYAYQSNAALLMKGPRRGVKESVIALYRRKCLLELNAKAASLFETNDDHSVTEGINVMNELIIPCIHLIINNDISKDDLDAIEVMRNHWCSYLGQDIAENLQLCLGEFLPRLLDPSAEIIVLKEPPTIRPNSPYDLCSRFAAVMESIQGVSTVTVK
Nature of the assay: Ubiquitin-Rhodamine 110 Assay for USP28 Activity, Example A-1(a). It is filed as biochemical. The conditions noted are these: Example A-1(a), read-out: USP28 A-1(a) IC50 range. In outline:
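IC50 from 4-parameter logistic fit of percent inhibition versus no-enzyme and DMSO controls; compounds 25 μM to 1.3 nM, 3-fold. Ub-Rh110 cleavage (25 nM, below Km) by […] mammalian-expressed USP28-FL-His ran 45 min at room temperature, stopped with 10 mM citric acid, read ex 485/em 535.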

As for `Cc1cc(C)c2c(N)c(C(=O)N[C@H]3COc4cc(N5CC6CNCC(C5)O6)ccc4C3)sc2n1` [Example 2-20, N-((3R)-7-(9-oxa-3,7-diazabicyclo[3.3.1]nonan-3-yl)chroman-3-yl)-3-amino-4,6-dimethylthieno[2,3-b]pyridine-2-carboxamide], the IC50 (Ub-Rh110 assay) lay within 1 to 50 nM. On the same count and under the same terms, under `Cc1cc(C(F)(F)F)c2c(N)c(C(=O)N[C@H]3COc4cc(N5CC6CC(C5)N6)ccc4C3)sc2n1` [Example 2-21] stands 1 to 50 nM; under `Cc1cc(C(F)(F)F)c2c(N)c(C(=O)N[C@H]3COc4cc(N5CC6CNCC(C5)C6(F)F)ccc4C3)sc2n1` [Example 2-22, 3-amino-N-((3R)-7-(9,9-difluoro-3,7-diazabicyclo[3.3.1]nonan-3-yl)chroman-3-yl)-6-methyl-4-(trifluoromethyl)thieno[2,3-b]pyridine-2-carboxamide], 1 to 50 nM; under `Cc1cc(C(F)(F)F)c2c(N)c(C(=O)N[C@H]3COc4cc(N5CC6CNCC(C5)O6)ccc4C3)sc2n1` [Example 2-23, N-((3R)-7-(9-oxa-3,7-diazabicyclo[3.3.1]nonan-3-yl)chroman-3-yl)-3-amino-6-methyl-4-(trifluoromethyl)thieno[2,3-b]pyridine-2-carboxamide], 1 to 50 nM. The same measure, in the same setting: under `O=C(N[C@H]1COc2cc(N3CC4CCC(C3)N4)ccc2C1)c1cnc2c(c1)C1(CCN2)CC1` [Example 2-24, N-((3R)-7-(3,8-diazabicyclo[3.2.1]octan-3-yl)chroman-3-yl)-2′,3′-dihydro-1′H-spiro[cyclopropane-1,4′-[1,8]naphthyridine]-6′-carboxamide] stands 50 to 200 nM.

Turning to `O=C(N[C@H]1COc2cc(N3CC4CCC(C3)N4)ccc2C1)c1ccc(NCc2ccccc2)nc1` [Example 2-25, N-((3R)-7-(3,8-diazabicyclo[3.2.1]octan-3-yl)chroman-3-yl)-6-(benzylamino)nicotinamide], the IC50 (Ub-Rh110 assay) is 50 to 200 nM. As to `Cc1nc2sc(C(=O)N[C@H]3COc4cc(N5CC6CC(C5)N6)ccc4C3)c(N)c2s1` [Example 2-26, N-((3R)-7-(3,6-diazabicyclo[3.1.1]heptan-3-yl)chroman-3-yl)-6-amino-2-methylthieno[2,3-d]thiazole-5-carboxamide], where the note is “Ub-Rh110 assay”, the IC50 is 50 to 200 nM.

Consider `Cc1nc2sc(C(=O)N[C@H]3COc4cc(N5CC6CCCC(C5)N6)ccc4C3)c(N)c2s1` [Example 2-27], for which, for the setting “Ub-Rh110 assay”, the half-maximal inhibitory concentration (IC50) was 1 to 50 nM.

With `Cc1nc2sc(C(=O)N[C@H]3COc4cc(N5CC6CNCC(C5)C6(F)F)ccc4C3)c(N)c2s1` [Example 2-28, 6-amino-N-((3R)-7-(9,9-difluoro-3,7-diazabicyclo[3.3.1]nonan-3-yl)chroman-3-yl)-2-methylthieno[2,3-d]thiazole-5-carboxamide], under “Ub-Rh110 assay”, the IC50 was in the range of 1 to 50 nM. Consider `CCn1ccc2cc(C(=O)N[C@H]3COc4cc(N5CC6CCCC(C5)N6)ccc4C3)nnc21` [Example 2-29, N-((3R)-7-(3,9-diazabicyclo[3.3.1]nonan-3-yl)chroman-3-yl)-7-ethyl-7H-pyrrolo[2,3-c]pyridazine-3-carboxamide], for which, where the note is “Ub-Rh110 assay”, the IC50 was 50 to 200 nM. As for `CCn1ccc2cc(C(=O)N[C@H]3COc4cc(N5CC6CNCC(C5)C6(F)F)ccc4C3)cnc21` [Example 2-30, N-((3R)-7-(9,9-difluoro-3,7-diazabicyclo[3.3.1]nonan-3-yl)chroman-3-yl)-1-ethyl-1H-pyrrolo[2,3-b]pyridine-5-carboxamide], the IC50 (Ub-Rh110 assay) is 1 to 50 nM. Take `Cc1cc(C)c2c(N)c(C(=O)N[C@H]3COc4c(C#N)c(N5CCNCC5)cc(F)c4C3)sc2n1` [Example 2-31, (R)-3-amino-N-(8-cyano-5-fluoro-7-(piperazin-1-yl)chroman-3-yl)-4,6-dimethylthieno[2,3-b]pyridine-2-carboxamide]: the IC50 (Ub-Rh110 assay) fell in the range of 1 to 50 nM. The same measure, in the same setting: under `Cc1cc(C)c2c(N)c(C(=O)N[C@H]3COc4cc(N5CCNCC5)c(C#N)c(F)c4C3)sc2n1` [Example 2-32, (R)-3-amino-N-(6-cyano-5-fluoro-7-(piperazin-1-yl)chroman-3-yl)-4,6-dimethylthieno[2,3-b]pyridine-2-carboxamide] stands 1 to 50 nM; under `Cc1ccc2c(N)c(C(=O)N[C@H]3COc4cc(N5CC6CNCC(C5)C6(F)F)c(C#N)cc4C3)sc2n1` [Example 2-33, 3-amino-N-((3R)-6-cyano-7-(9,9-difluoro-3,7-diazabicyclo[3.3.1]nonan-3-yl)chroman-3-yl)-6-methylthieno[2,3-b]pyridine-2-carboxamide], 1 to 50 nM; under `[2H]C([2H])([2H])O[C@H]1CN(c2ccc3c(c2)OC[C@H](NC(=O)c2sc4nc(C)ccc4c2N)C3)C[C@@H]1N` [Example 2-38, 3-amino-N-((R)-7-((3S,4S)-3-amino-4-(methoxy-d3)pyrrolidin-1-yl)chroman-3-yl)-6-methylthieno[2,3-b]pyridine-2-carboxamide], 50 to 200 nM. Consider `Cc1cnc2c(N)c(C(=O)N[C@H]3CCc4nc(N5CCNCC5)ccc4C3)sc2n1` [Example 23-6, 7-amino-3-methyl-N-[(6S)-2-(piperazin-1-yl)-5,6,7,8-tetrahydroquinolin-6-yl]thieno[2,3-b]pyrazine-6-carboxamide], for which, for the setting “Ubiquitin-Rhodamine 110 assay”, the IC50 was 50 to 200 nM.
